Measured values taken from patent publication US20010020013A1, “Ortho-diphenol compounds, methods and pharmaceutical compositions for inhibiting parp” (GUILFORD PHARMACEUTICALS, INC., priority 1998, published 2001).

Assays:
[1] = test system: male Long-Evans rats; test: Neuroprotective effect of DPQ on focal cerebral ischemia (distal MCA cauterization plus bilateral CCA occlusion), TTC infarct area and volume; format: in vivo, rat
Procedure: Focal cerebral ischemia was produced by cauterization of the right distal MCA (middle cerebral artery) with bilateral temporary common carotid artery occlusion in male Long-Evans rats for 90 minutes. All procedures performed on the animals were approved by the University Institutional Animal Care and Use Committee of the University of Pennsylvania. A total of 42 rats (weights: 230-340 g) obtained from Charles River were used in this study. The animals fasted overnight with free access to water prior to the surgical procedure.
Two hours prior to MCA occlusion, varying amounts (control, n=14; 5 mg/kg, n=7; 10 mg/kg, n=7; 20 mg/kg, n=7; and 40 mg/kg, n=7) of the compound, 3,4-dihydro-5-[4-(1-piperidinyl)-butoxy]-1 (2H)-isoquinolinone (“DPQ”) were dissolved in dimethyl sulfoxide (DMSO) using a sonicator. A volume of 1.28 ml/kg of the resulting solution was injected intraperitoneally into fourteen rats.
Focal cerebral ischemia was produced by cauterization of the distal portion of the right MCA with bilateral temporary common carotid artery (CCA) occlusion by the procedure of Chen et al., “A Model of Focal Ischemic Stroke in the Rat: Reproducible Extensive Cortical Infarction”, Stroke 17:738-43 (1986) and/or Liu et al., “Polyethylene Glycol-conjugated Superoxide Dismutase and Catalase Reduce Ischemic Brain Injury”, Am. J. Physiol. 256:H589-93 (1989), both of which are hereby incorporated by reference. […]
Two hours after MCA occlusion, the animals were given the same doses of the PARP inhibitor as in the pre-treatment. […] To avoid artifacts due to edema, the damaged area was calculated by subtracting the area of the normal tissue in the hemisphere ipsilateral to the stroke from the area of the hemisphere contralateral to the stroke, by the method of Swanson et al., “A Semiautomated Method for Measuring Brain Infarct Volume”, J. Cereb. […] The total volume of infarction was calculated by summation of the damaged volume of the brain slices.

[2] = test system: C57/BL male mice; test: Septic shock assay (LPS plus galactosamine challenge), mortality; format: in vivo, mouse; details: 60, 20, 6 and 2 mg/kg daily IP for three days, first dose 30 min after challenge
Procedure: Groups of 10 C57/BL male mice weighing 18 to 20 g were administered a test compound, 1-carboxynaphthalene-1-carboxamide at the doses of 60, 20, 6 and 2 mg/kg, daily, by intraperitopeal (IP) injection for three consecutive days. Each animal was first challenged with lipopolysaccharide (LPS, from E. Coli, LD100 of […] IV) plus galactosamine (20 mg/animal IV). The first dose of test compound in a suitable vehicle was given 30 minutes after challenge, and the second and third doses were given 24 hours later on day 2 and day 3 respectively, with only the surviving animals receiving the second or third dose of the test compound. Mortality was recorded every 12 hours after challenge for the three-day testing period. 1-Carboxy-naphthalene-1-carboxamide provided a protection against mortality from septic shock of about 40%.

[3] = test system: human fibroblast cells lines (W138 or BJ cells); test: Extending proliferative capacity and lifespan of cells; format: cell-based; details: untreated cells stop dividing after about 40 days
Procedure: At the time of subdivision, the media is aspirated, and the cells rinsed with phosphate buffer saline (PBS) and then trypsinized. The cells are counted with a Coulter counter and plated at a density of 10^5 cells per cm^2 in 6-well tissue culture plates in DMEM/199 medium supplemented with 10% bovine calf serum and varying amounts ([…]: from a 100X stock solution in DMEM/M199 medium) of a PARP inhibitor of Formula I as disclosed herein. This process is repeated every 7 days until the cell appear to stop dividing. The untreated (control) cells reach senescence and stop dividing after about 40 days in culture.

With `O=C1NCCc2c(OCCCCN3CCCCC3)cccc21` [DPQ, 3,4-dihydro-5-[4-(1-piperidinyl)-butoxy]-1 (2H)-isoquinolinone] the “distribution of the cross-sectional infarct area (FIG. 1 curve)” value (“distribution” below) ([1]; 5 mg/kg) was “approximately halfway between the control and the 10 mg/kg curves”, the “distribution” value ([1]; 20 mg/kg) was “approximately halfway between the control and the 10 mg/kg curves” and the “distribution” value ([1]; 40 mg/kg) was “close to the control”.
`NC(=O)C1(C(=O)O)CC=Cc2ccccc21` (stereo not shown) [1-Carboxy-naphthalene-1-carboxamide, 1-carboxynaphthalene-1-carboxamide] was tested, and the “protection against mortality from septic shock” value [2] was “about 40%”.
For `NC(=O)c1cccc(N)c1` [3-amino-benzamide], the “effect on lifespan of the cells” value ([3]; 10 μM) was “little or no effect”, the “effect on lifespan of the cells” value ([3]; 100 μM) was “lengthen the lifespan of the cells” and the “time in culture at which cells still divide” value ([3]; 1 mM) was “still divide after 60 days”.
